Patent US9958434B2, “Fluorescent probe sensing tyrosine kinase and use thereof” (POSTECH ACADEMY-INDUSTRY FOUNDATION, priority 2013, dated 2018)

Assays:
[1] = Absorbance and fluorescence in HEPES buffer; assay type: physicochemical; conditions: 10 mM HEPES buffer, pH 7.5
Method: The present inventors measured absorbance and a change in fluorescence of compound 1 under various solvent conditions.
The present inventors measured the absorbance and fluorescence of compound 1 in a buffer (pH 7.5, 10 mM HEPES). A UV/Vis spectrophotometer commercially available from HP was used to analyze the UV/Vis absorption spectra, and a photon technical international fluorescence system commercially available from PTI was used to analyze the fluorescence spectra. In this case, a cell used when compound 1 was put into each type of equipment was a standard quartz cell having a thickness of 1 cm.
In addition to compound 1, compound 5 was shown as a reference material in FIG. 1. In this case, compound 5 is a reference material obtained by introducing an alkyl group into a —OH group of compound 1 to remove an intramolecular hydrogen bond.
The panels (a) and (b) of the graph show the absorbances and fluorescence intensities of compound 5 and compound 1 under a solvent condition (for example, a 10 mM HEPES buffer, pH 7.5).

[2] = target: T1, Src (Homo sapiens, UniProt P12931); experiment: Protein binding selectivity by change in fluorescence (fluorescence turn-on on binding)
T1 construct: purchased Carna Biosciences
T1 sequence (P12931 whole entry): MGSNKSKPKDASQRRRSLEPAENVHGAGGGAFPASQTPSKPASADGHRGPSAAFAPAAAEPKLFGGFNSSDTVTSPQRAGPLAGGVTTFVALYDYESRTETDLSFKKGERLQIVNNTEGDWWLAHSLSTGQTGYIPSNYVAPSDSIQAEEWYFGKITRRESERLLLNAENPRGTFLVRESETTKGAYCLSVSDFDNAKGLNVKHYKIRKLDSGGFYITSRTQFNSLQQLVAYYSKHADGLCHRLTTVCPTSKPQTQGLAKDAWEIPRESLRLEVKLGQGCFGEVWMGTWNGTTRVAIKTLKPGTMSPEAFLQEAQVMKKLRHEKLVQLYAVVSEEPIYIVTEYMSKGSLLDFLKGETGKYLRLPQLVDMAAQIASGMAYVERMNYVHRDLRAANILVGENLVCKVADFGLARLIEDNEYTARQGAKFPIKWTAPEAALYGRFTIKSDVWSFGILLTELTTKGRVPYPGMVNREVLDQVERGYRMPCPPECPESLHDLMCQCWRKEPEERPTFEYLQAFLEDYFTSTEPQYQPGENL
Method: More particularly, to determine whether compound 1 selectively binds to a kinase enzyme, various proteins (including a kinase enzyme) were used to check a change in fluorescence. In this experiment, a buffer (100 mM HEPES buffer, pH 7.4) was used as the solvent, and a kinase commercially available from Carna Biosciences was used as the kinase enzyme. Here, each kinase enzyme was stored at −80° C. together with a solvent (50 mM Tris-HCl, 150 mM NaCl, 0.1% CHAPS, 1 mM DTT, and 10% Glycerol, pH 7.5) kindly provided by the manufacturer. […] A 96-well fluorescence assay plate (commercially available from SPL Life Science) was used as a plate used upon measurement of fluorescence, and a VCITOR 3 multilabel counter (commercially available from Perkin Elmer-Wellesley) was used as a measuring machine. A 355 nm-thick filter was used to produce excitation wavelengths of the measuring machine, and a 535 nm-thick filter was used to produce emission wavelengths of the measuring machine. Stirring was performed at 37° C. for 24 hours at a rotary speed of 170 rpm using an NB-205Q model (commercially available from N-BIOTEK). Compound 1 was dissolved in a DMSO solution (1 mM, 10 mM, 50 mM, 100 mM, and 200 mM) to be used, and DMSO in every tube was adjusted to be substantially the same content (less than 1%) under the finally used solvent conditions. Mg^2+ and ATP were used at a content of 1 mM.
In the graph shown in FIG. 2, the horizontal axis represents kinds of proteins, and the vertical axis represents fluorescence intensities of the proteins. Each experimental value was basically an average value of three experiments conducted through the same course for preparing for experiments, a concentration of compound 1 used was 100 μM, and an amount of each protein was 0.2 μg/mL. The kinds of proteins indicated on the horizontal axis are as follows. […]
More particularly, the solvent and experiment conditions used were substantially the same as in Example 3. In the graph shown in FIG. 7, A represents a fluorescence intensity when compound 1 (100 μM) is used alone, B represents a fluorescence intensity when Mg (1 mM) is added to compound 1, C represents a fluorescence intensity when ATP (1 mM) is added to compound 1, and D represents a fluorescence intensity when compound 1 is treated with Mg (1 mM) and ATP (1 mM) at the same time.
More particularly, a concentration of the kinase enzyme was set to 0.2 μg/mL, fluorescence intensity according to the concentration of compound 1 was measured in the presence of Mg (1 mM) and ATP (1 mM), and the solvent conditions and other conditions were substantially the same as in Example 3.

Structure (SMILES): CN(C)c1ccc2cc(C=O)c(O)cc2c1 [compound 1, 6-(dimethylamino)-3-hydroxyl-2-naphthaldehyde]
- fluorescence emission [1]: did not emit fluorescence
- maximum absorbance [1]: 390 nm
- fluorescence intensity ([2]; compound 1 100 μM, protein 0.2 μg/mL, with Mg and ATP (1 mM), 37° C. 24 hours): increase in fluorescence
- fluorescence intensity, effect of cofactors ([2]; compound 1 100 μM, case D: Mg (1 mM) and ATP (1 mM) together): highest increase in fluorescence intensity
- fluorescence signal intensity according to concentration of kinase enzyme ([2]; compound 1 100 μM, enzyme 0.2 μg and 1 μg): stronger fluorescence signal intensity at higher concentrations
- increase in fluorescence intensity ([2]; compound 1 at approximately 50 μM, kinase 0.2 μg/mL, Mg 1 mM, ATP 1 mM): approximately 50%
